The values below come from PubChem BioAssay (NCI).

Test systems include BT-549 breast; CAKI-1 renal; COLO 205 colon; IGROV1 ovarian; KM12 colon; SK-MEL-2 melanoma; SN12C renal; T-47D breast; UACC-257 melanoma; UO-31 renal.
Common to all, as to assay: NCI-60 cell line screen, 48 h

Structures are written as SMILES.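 Each compound was tested at five concentrations against cells in 96-well plates for 48 hours. Here, GI50 denotes the concentration required for 50% inhibition of growth. TGI: total growth inhibition.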

Take `O=c1ccc(N=Nc2ccc([N+](=O)[O-])cc2)ccc1O`: the GI50 with BT-549 breast was 8.74 µM; with CAKI-1 renal, 7.79 µM; in the test with COLO 205 colon it was 21.7 µM; in the test with IGROV1 ovarian, 6.33 µM; in the test with KM12 colon, 5.54 µM; with SK-MEL-2 melanoma, 9.33 µM. The GI50 in the test with SN12C renal is 3.61 µM; in the test on T-47D breast it was 4.31 µM; with UACC-257 melanoma it was 10.6 µM; in the test on UO-31 renal it was 5.35 µM. In addition, the TGI is over 100 µM with BT-549 breast; over 100 µM in the test on CAKI-1 renal; over 100 µM in the test with COLO 205 colon; over 100 µM in the test on IGROV1 ovarian; over 100 µM with KM12 colon; 73.6 µM with SK-MEL-2 melanoma. For the same compound, the TGI in the test on SN12C renal was over 100 µM; in the test on T-47D breast, over 100 µM; with UACC-257 melanoma it was 81.6 µM; in the test on UO-31 renal, over 100 µM.

Take `CCC[CH2][Sn]([CH2]CCC)([O]C(=O)c1cc(F)ccc1F)[O][Sn]([CH2]CCC)([CH2]CCC)[O]C(=O)c1cc(F)ccc1F`: the GI50 in the test on BT-549 breast was 0.225 µM; in the test on CAKI-1 renal, 0.129 µM; in the test with COLO 205 colon, 0.413 µM; in the test on IGROV1 ovarian, 1.03 µM; in the test on KM12 colon, 0.999 µM; with SK-MEL-2 melanoma, 0.18 µM. Further, the GI50 was 0.314 µM in the test with SN12C renal, 0.0222 µM with T-47D breast, 0.255 µM in the test with UACC-257 melanoma and 0.54 µM in the test with UO-31 renal. Also, the TGI in the test with BT-549 breast turned out to be 0.946 µM; in the test on CAKI-1 renal it was 0.621 µM; in the test on COLO 205 colon it was 1.2 µM; with IGROV1 ovarian, 2.33 µM; in the test with KM12 colon, 2.32 µM; in the test with SK-MEL-2 melanoma, 0.496 µM. The TGI with SN12C renal came out at 1.27 µM; in the test with T-47D breast it was 0.207 µM; with UACC-257 melanoma, 1.21 µM; in the test on UO-31 renal, 1.78 µM.

For the compound `CC(C)c1c(C(=O)Nc2ccccc2)c(-c2ccccc2)c(-c2ccc(F)cc2)n1CC[C@@H]1CC=CC(=O)O1`, the GI50 is 1.6 µM in the test with BT-549 breast; 1.6 µM in the test on CAKI-1 renal; 1.68 µM in the test on COLO 205 colon; 2.3 µM with IGROV1 ovarian; 1.65 µM with KM12 colon; 1.87 µM with SK-MEL-2 melanoma. Besides, the GI50 is 1.01 µM with SN12C renal, 2.58 µM with T-47D breast, 1.97 µM with UACC-257 melanoma and 1.28 µM in the test on UO-31 renal. In addition, the TGI with BT-549 breast is 3.46 µM; in the test with CAKI-1 renal, 3.45 µM; with COLO 205 colon it was 3.5 µM; in the test on IGROV1 ovarian it was 5.41 µM; in the test with KM12 colon, 3.24 µM; with SK-MEL-2 melanoma it was 3.43 µM. For the same compound, the TGI in the test on SN12C renal came out at 3.82 µM; in the test on T-47D breast it was 7.65 µM; with UACC-257 melanoma it was 3.92 µM; in the test on UO-31 renal, 2.57 µM.

With `CC(C)(O)C#Cc1ccc(/C=C/C(=O)c2ccccc2)s1`, the GI50 was 16.2 µM in the test with BT-549 breast; 16.9 µM in the test with CAKI-1 renal; 16.9 µM with COLO 205 colon; 14.7 µM in the test with IGROV1 ovarian; 4.37 µM in the test on KM12 colon; 17.6 µM with SK-MEL-2 melanoma. The GI50 in the test on SN12C renal is 18.1 µM; in the test on T-47D breast it was 14.5 µM; in the test on UACC-257 melanoma, 18.4 µM; in the test with UO-31 renal, 14.5 µM. Moreover, the TGI came to 30.8 µM with BT-549 breast; 30.6 µM in the test on CAKI-1 renal; 32.7 µM in the test with COLO 205 colon; 27.8 µM in the test with IGROV1 ovarian; 14.4 µM with KM12 colon; 33.9 µM in the test with SK-MEL-2 melanoma. The TGI with SN12C renal was 32.1 µM; in the test on T-47D breast, 67.9 µM; with UACC-257 melanoma, 32.4 µM; with UO-31 renal, 27.6 µM.

Regarding `CCCCOc1ccc(NC(=O)n2nc(N)c3ccccc32)cc1`, the GI50 was 17.6 µM in the test on BT-549 breast; 29.1 µM with CAKI-1 renal; 18 µM in the test on COLO 205 colon; 33 µM in the test on IGROV1 ovarian; 13.2 µM in the test on KM12 colon; 27.8 µM in the test with SK-MEL-2 melanoma. In addition, the GI50 in the test with SN12C renal was 23.4 µM; in the test on T-47D breast it was 17 µM; in the test with UACC-257 melanoma, 24.8 µM; in the test with UO-31 renal it was 13.4 µM. The TGI in the test on BT-549 breast is 37 µM; with CAKI-1 renal it was 71.9 µM; with COLO 205 colon, 41 µM; in the test with IGROV1 ovarian, over 100 µM; in the test on KM12 colon it was 54.2 µM; in the test on SK-MEL-2 melanoma it was 76 µM. Besides, the TGI is 85.9 µM in the test with SN12C renal, over 88.2 µM with T-47D breast, 73.5 µM in the test on UACC-257 melanoma and over 100 µM with UO-31 renal.

Turning to `CC/C(=C(/c1ccc(OCCN(C)C)cc1)c1ccc(OC(=O)CCC(=O)c2c(C)[nH]c(/C=C3\N=C(c4ccc[nH]4)C=C3OC)c2C)cc1)c1ccccc1`, the GI50 in the test on BT-549 breast is 3.5 µM; with CAKI-1 renal it was 2.66 µM; in the test on COLO 205 colon it was 1.9 µM; with IGROV1 ovarian, 3.65 µM; in the test on KM12 colon, 1.21 µM; with SK-MEL-2 melanoma it was 2.42 µM. Also, the GI50 with SN12C renal is 3.09 µM; with T-47D breast, 1.34 µM; in the test with UACC-257 melanoma, 3.38 µM; in the test on UO-31 renal, 1.71 µM. For the same compound, the TGI amounted to 20.4 µM in the test with BT-549 breast; 16 µM in the test on CAKI-1 renal; 7.24 µM in the test on COLO 205 colon; 15.4 µM in the test with IGROV1 ovarian; 10 µM with KM12 colon; 6.2 µM in the test on SK-MEL-2 melanoma. Also, the TGI is 18.9 µM with SN12C renal, 7.79 µM in the test on T-47D breast, 14.7 µM in the test on UACC-257 melanoma and 5.05 µM with UO-31 renal.
